The numbers were not newly measured in patent US20070213332A1, “Prodrugs Of Substituted Amino Heterobicycles Which Modulate The Function Of The Vanilloid-1 Receptor (Vr1)” (priority 2004, published 2007), which cites them from elsewhere.

For this series, the target named is VR1 (Rattus norvegicus, UniProt O35433). The conditions noted are these: Walpole et al., J. Med. Chem., 37:1942, 1994.
Chain of VR1 (O35433 whole entry): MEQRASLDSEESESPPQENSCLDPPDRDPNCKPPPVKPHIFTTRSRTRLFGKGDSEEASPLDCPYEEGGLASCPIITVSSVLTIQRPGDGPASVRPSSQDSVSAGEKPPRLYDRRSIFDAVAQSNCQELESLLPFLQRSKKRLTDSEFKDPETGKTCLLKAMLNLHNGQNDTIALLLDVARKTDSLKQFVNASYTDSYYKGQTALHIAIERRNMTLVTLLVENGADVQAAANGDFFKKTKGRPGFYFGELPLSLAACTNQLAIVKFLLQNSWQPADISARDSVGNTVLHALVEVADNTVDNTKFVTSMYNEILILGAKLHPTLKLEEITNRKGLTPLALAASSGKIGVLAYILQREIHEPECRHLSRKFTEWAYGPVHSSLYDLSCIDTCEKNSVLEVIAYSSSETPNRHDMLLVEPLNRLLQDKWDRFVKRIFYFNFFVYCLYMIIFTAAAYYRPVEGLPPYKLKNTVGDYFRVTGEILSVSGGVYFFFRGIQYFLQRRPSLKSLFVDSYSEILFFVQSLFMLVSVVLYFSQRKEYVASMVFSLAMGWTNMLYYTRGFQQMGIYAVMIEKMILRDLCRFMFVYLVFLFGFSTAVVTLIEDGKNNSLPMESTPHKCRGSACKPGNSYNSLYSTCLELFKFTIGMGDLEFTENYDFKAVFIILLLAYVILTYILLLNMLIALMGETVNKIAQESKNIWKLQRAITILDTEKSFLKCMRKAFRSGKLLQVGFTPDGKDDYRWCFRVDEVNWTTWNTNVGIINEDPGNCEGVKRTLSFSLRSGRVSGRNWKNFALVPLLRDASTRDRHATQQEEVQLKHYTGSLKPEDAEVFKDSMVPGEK

A word on the IC50: it is the concentration at which inhibition is half-maximal. Turning to `Oc1cc2c(cc1O)CN(C(=S)NCCc1ccc(Cl)cc1)CCC2` [capsazepine], the IC50 is 420 nM.
